Test results: publication PMC3431846, “2,3-Dihydro-1H-cyclopenta[b]quinoline Derivatives as Acetylcholinesterase Inhibitors—Synthesis, Radiolabeling and Biodistribution” (International Journal of Molecular Sciences, 2012)
Counter-ions that a name gives are not always drawn.

Experiments:
acetylcholinesterase = conditions: in words; cited from earlier work
[1] = molecular target: Acetylcholinesterase from Electrophorus electricus (electric eel) (Electrophorus electricus, UniProt O42275); test: biochemical
[2] = molecular target: Butyrylcholinesterase from equine serum (Equus caballus, UniProt P81908); test: biochemical
[3] = Biodistribution of radioactivity in rats after intravenous 99mTc-6a; conditions: 99mTc-labelled, in words
Method: For biodistribution studies, male Wistar rats weighing 190–260 g were used. Prior to the experiment, the animals were fasted overnight (to empty the bowels), but had free access to water. All animal experiments were approved by the Ethics Committee of the Faculty of Pharmacy, Charles University, Hradec Kralove.
The agent was administered to rats intravenously in a volume of 0.2 mL. During the course of the experiments, each animal was placed in an individual cage. At various time points after injection, the carotid artery was exposed under ether anesthesia and a blood sample was collected in glass tubes containing dry heparin. The rats were sacrificed and dissected.
The results were expressed as mean ± standard deviations of at least four animals.

Butyrylcholinesterase from equine serum, sequence (P81908 whole entry): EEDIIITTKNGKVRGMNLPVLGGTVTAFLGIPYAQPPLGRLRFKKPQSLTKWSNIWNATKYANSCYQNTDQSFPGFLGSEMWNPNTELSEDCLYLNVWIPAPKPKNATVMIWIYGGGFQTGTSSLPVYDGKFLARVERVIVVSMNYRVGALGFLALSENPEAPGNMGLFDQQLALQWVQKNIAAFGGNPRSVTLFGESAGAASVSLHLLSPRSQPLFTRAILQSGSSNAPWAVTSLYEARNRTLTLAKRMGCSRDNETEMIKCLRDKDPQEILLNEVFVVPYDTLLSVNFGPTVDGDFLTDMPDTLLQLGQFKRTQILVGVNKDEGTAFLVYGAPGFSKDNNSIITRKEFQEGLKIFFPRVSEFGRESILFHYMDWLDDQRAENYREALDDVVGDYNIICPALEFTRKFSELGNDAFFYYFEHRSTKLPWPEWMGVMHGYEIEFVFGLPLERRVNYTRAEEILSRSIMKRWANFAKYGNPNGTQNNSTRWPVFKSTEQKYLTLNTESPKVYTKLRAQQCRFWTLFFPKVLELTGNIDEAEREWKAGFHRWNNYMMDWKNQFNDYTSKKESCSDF
Acetylcholinesterase from Electrophorus electricus (electric eel), sequence (O42275 24-633): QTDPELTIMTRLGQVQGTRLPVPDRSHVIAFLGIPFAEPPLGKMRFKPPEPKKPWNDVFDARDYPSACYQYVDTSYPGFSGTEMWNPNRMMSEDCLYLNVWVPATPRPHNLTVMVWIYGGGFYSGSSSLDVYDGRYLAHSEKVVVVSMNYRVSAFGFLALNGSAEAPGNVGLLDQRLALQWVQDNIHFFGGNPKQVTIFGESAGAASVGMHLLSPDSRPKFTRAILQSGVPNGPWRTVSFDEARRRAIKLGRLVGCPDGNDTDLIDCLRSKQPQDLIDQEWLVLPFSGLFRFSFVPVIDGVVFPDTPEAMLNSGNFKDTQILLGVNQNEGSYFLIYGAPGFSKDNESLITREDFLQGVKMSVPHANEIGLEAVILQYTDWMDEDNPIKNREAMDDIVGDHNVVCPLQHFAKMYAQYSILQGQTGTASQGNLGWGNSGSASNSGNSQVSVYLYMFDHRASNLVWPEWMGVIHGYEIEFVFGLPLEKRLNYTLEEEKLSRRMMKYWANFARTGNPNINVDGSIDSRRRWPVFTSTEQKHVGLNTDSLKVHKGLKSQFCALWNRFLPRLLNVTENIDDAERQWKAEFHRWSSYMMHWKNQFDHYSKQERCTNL

Structure (SMILES)	potency compared with tacrine (acetylcholinesterase)	IC50 [1]	IC50 [2]	blood radioactivity clearance [3]
Nc1c2c(nc3cc(Cl)ccc13)CCCC2O (stereo not shown) [6-chlorotacrin-1-ol]	more potent than tacrine	–	–	–
Cl.NNc1ccc(C(=O)NCCNc2c3c(nc4ccccc24)CCC3)cn1 [Compound 6a, 6-Hydrazino-N-[2-(2,3-dihydro-1H-cyclopenta[b]quinolin-9-ylamino)Ethyl]nicotinamide hydrochloride]	–	31.5 ± 1.9 nM	164 ± 1.6 nM	comparatively rapid
NNc1ccc(C(=O)NCCCCCCCCCNc2c3c(nc4ccccc24)CCC3)cn1 [Compound 6h, 6-Hydrazino-N-[9-(2,3-dihydro-1H-cyclopenta[b]quinolin-9-ylamino)nonyl]nicotinamide hydrochloride]	–	3.65 ± 0.5 nM	17100 ± 21.3 nM	–
NNc1ccc(C(=O)NCCCCNc2c3c(nc4ccccc24)CCC3)cn1 [Compound 6c, 6-Hydrazino-N-[4-(2,3-dihydro-1H-cyclopenta[b]quinolin-9-ylamino)butyl]nicotinamide hydrochloride]	–	22.4 ± 1.7 nM	2650 ± 9.5 nM	–
Nc1c2c(nc3cc(F)ccc13)CCCC2O (stereo not shown) [6-fluorotacrin-1-ol]	more potent than tacrine	–	–	–
NNc1ccc(C(=O)NCCCNc2c3c(nc4ccccc24)CCC3)cn1 [Compound 6b, 6-Hydrazino-N-[3-(2,3-dihydro-1H-cyclopenta[b]quinolin-9-ylamino)propyl]nicotinamide hydrochloride]	–	19.3 ± 1.1 nM	197 ± 3.4 nM	–
NNc1ccc(C(=O)NCCCCCCCCNc2c3c(nc4ccccc24)CCC3)cn1 [Compound 6g, 6-Hydrazino-N-[8-(2,3-dihydro-1H-cyclopenta[b]quinolin-9-ylamino)octyl]nicotinamide hydrochloride]	–	5.17 ± 1.4 nM	19600 ± 16.4 nM	–
NNc1ccc(C(=O)NCCCCCNc2c3c(nc4ccccc24)CCC3)cn1 [Compound 6d, 6-Hydrazino-N-[5-(2,3-dihydro-1H-cyclopenta[b]quinolin-9-ylamino)pentyl]nicotinamide hydrochloride]	–	7.84 ± 2.2 nM	4240 ± 2.2 nM	–
NNc1ccc(C(=O)NCCCCCCCNc2c3c(nc4ccccc24)CCC3)cn1 [Compound 6f, 6-Hydrazino-N-[7-(2,3-dihydro-1H-cyclopenta[b]quinolin-9-ylamino)heptyl]nicotinamide hydrochloride]	–	17.6 ± 0.8 nM	22700 ± 20.6 nM	–
NNc1ccc(C(=O)NCCCCCCNc2c3c(nc4ccccc24)CCC3)cn1 [Compound 6e, 6-Hydrazino-N-[6-(2,3-dihydro-1H-cyclopenta[b]quinolin-9-ylamino)hexyl]nicotinamide hydrochloride]	–	41.6 ± 1 nM	16600 ± 17.5 nM	–
